Tests used:
[1] = target: T1, Alpha-1D adrenergic receptor (Homo sapiens, UniProt P25100); assay type: cell membranes, HEK293, Membrane; settings: hek293; further: in other assays of this panel Not Active means under 50% inhibition at 10 µM
T1 sequence (P25100 whole entry): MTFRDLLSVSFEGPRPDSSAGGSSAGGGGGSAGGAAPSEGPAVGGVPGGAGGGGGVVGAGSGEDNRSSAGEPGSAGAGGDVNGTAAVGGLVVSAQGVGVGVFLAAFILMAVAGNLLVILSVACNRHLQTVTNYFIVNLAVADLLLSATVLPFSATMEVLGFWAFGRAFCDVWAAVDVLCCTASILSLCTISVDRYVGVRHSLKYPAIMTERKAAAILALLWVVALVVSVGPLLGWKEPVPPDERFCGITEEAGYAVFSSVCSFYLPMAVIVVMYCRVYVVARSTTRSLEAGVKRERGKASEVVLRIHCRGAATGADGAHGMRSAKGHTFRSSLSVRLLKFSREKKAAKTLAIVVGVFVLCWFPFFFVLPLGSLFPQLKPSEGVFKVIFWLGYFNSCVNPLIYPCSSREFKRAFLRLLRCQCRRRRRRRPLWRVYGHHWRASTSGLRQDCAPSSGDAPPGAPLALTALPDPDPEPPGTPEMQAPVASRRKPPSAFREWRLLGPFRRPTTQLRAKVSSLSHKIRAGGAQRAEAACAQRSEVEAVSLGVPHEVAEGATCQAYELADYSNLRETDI

[2] = target: D(3) dopamine receptor (Homo sapiens, UniProt P35462); assay: DRUGMATRIX: Dopamine D3 radioligand binding (ligand: [3H] Spiperone); assay type: cell membranes, CHO, Membrane; settings: for Ki: read-out: Ki
[3] = target: T2, Muscarinic acetylcholine receptor M5 (Homo sapiens, UniProt P08912); assay type: cell membranes, CHO-K1, Membrane; settings: cho-k1; further: in other assays of this panel Not Active means under 50% inhibition at 10 µM
T2 sequence (P08912 whole entry): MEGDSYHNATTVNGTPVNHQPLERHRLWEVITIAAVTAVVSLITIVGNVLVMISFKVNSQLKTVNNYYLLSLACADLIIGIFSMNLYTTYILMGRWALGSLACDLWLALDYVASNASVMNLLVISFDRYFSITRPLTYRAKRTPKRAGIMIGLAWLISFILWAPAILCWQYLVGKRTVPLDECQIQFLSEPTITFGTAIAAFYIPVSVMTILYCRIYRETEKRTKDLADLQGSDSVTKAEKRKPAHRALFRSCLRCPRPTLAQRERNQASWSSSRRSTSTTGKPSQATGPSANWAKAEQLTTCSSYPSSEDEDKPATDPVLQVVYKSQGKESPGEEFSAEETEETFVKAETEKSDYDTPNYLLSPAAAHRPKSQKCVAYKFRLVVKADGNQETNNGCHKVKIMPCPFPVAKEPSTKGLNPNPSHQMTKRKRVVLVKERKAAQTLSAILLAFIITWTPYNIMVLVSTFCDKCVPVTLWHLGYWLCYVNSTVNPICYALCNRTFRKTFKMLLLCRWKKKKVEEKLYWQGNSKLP

[4] = target: Mu-type opioid receptor (Homo sapiens, UniProt P35372); assay: DRUGMATRIX: Opiate mu (OP3, MOP) radioligand binding (ligand: [3H] Diprenorphine); assay type: cell membranes, CHO-K1, Membrane; settings: cho-k1; Not Active = under 50% inhibition at 10 µM
[5] = target: Mitogen-activated protein kinase 3 (Homo sapiens, UniProt P27361); assay: DRUGMATRIX: Protein Serine/Threonine Kinase, ERK1 enzyme inhibition (substrate: Myelin Basic Protein); design: species or system Escherichia coli; settings: Not Active = under 50% inhibition at 10 µM
[6] = target: Cytochrome P450 2D6 (Homo sapiens, UniProt P10635); settings: bti-tn-5b1-4; further: in other assays of this panel Not Active means under 50% inhibition at 10 µM
Chain of Cytochrome P450 2D6 (P10635 whole entry): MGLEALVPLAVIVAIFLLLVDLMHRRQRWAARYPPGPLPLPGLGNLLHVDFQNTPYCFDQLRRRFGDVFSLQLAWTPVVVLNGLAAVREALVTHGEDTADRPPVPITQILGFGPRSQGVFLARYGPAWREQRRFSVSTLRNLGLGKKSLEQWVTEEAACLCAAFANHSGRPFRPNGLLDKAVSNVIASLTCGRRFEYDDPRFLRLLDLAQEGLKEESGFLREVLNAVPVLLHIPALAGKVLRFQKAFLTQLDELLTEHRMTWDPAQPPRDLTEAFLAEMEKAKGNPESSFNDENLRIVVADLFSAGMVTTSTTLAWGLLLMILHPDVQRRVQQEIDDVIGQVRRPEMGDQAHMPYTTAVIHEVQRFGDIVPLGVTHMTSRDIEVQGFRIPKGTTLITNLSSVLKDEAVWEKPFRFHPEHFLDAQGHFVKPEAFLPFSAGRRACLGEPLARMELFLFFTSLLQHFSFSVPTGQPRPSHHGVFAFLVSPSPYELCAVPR

Chain of D(3) dopamine receptor (P35462 whole entry): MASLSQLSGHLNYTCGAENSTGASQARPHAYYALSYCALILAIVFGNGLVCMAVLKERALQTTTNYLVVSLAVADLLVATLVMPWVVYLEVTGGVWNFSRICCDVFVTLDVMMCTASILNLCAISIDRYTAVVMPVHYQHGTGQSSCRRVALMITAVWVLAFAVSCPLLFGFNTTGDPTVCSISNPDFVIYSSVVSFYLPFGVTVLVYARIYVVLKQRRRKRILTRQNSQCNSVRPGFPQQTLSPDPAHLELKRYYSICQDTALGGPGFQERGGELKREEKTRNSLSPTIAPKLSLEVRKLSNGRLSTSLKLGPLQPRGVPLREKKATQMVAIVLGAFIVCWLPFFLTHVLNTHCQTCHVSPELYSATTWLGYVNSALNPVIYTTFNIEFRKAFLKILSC
Chain of Mitogen-activated protein kinase 3 (P27361 whole entry): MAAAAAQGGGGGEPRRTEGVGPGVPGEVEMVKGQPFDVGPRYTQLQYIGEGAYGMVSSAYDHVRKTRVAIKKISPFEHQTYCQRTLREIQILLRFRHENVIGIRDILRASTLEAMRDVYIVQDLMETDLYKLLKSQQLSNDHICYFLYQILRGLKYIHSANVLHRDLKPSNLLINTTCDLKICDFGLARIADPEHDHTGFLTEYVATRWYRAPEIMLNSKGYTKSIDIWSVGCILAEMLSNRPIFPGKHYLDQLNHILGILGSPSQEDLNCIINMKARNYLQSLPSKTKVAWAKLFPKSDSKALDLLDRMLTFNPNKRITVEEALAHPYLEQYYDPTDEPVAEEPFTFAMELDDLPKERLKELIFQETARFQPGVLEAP
Chain of Mu-type opioid receptor (P35372 whole entry): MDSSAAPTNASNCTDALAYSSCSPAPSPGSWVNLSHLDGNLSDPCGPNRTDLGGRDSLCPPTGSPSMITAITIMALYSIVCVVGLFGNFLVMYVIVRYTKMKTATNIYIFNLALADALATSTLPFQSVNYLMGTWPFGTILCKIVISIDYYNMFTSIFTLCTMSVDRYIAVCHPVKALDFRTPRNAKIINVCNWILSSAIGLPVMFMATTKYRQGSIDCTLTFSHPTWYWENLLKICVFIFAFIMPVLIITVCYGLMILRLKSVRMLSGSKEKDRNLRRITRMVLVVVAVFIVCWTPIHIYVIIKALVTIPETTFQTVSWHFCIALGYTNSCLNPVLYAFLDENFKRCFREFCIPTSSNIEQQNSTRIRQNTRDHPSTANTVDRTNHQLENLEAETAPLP

Compound	IC50 [1]	IC50 ([2]; cho)	IC50 [3]	IC50 [4]	IC50 [5]	IC50 [6]	Ki [6]	IC50 ([2]; read-out: IC50)	Ki [2]
COc1cc(NC(C)CCCN)c2ncccc2c1 (stereo not given) [PRIMAQUINE]	Not Active	Not Active	Not Active	Not Active	Not Active	Not Active	Not Active		
COc1ccc(Cl)cc1C(=O)NCCc1ccc(S(=O)(=O)NC(=O)NC2CCCCC2)cc1 [GLYBURIDE]	Not Active	Not Active	Not Active	Not Active	Not Active	Not Active	Not Active		
CCO [ALCOHOL]	Not Active	Not Active	Not Active	Not Active	Not Active	Not Active	Not Active		
CC(C)(c1ccc(O)cc1)c1ccc(O)cc1 [BISPHENOL A]	Not Active	Not Active	Not Active	Not Active	Not Active	Not Active	Not Active		
CC12CCC(CC1=O)C2(C)C (stereo not given) [CAMPHOR]	Not Active	Not Active	Not Active	Not Active	Not Active	Not Active	Not Active		
O=C(O)c1ccccc1 [BENZOIC ACID]	Not Active	Not Active	Not Active	Not Active	Not Active	Not Active	Not Active		
Oc1ncnc2[nH]ncc12 [ALLOPURINOL]	Not Active	Not Active	Not Active	Not Active	Not Active	Not Active	Not Active		
NC(=O)CN1CCCC1=O	Not Active	Not Active	Not Active	Not Active	Not Active	Not Active	Not Active		
CCN1CCN(C(=O)N[C@@H](C(=O)N[C@@H]2C(=O)N3[C@@H]2SC(C)(C)[C@@H]3C(=O)O)c2ccccc2)C(=O)C1=O [PIPERACILLIN]	Not Active	Not Active	Not Active	Not Active	Not Active	Not Active	Not Active		
Clc1cc(Cl)c(OCC#CI)cc1Cl [HALOPROGIN]	Not Active		Not Active	Not Active	Not Active	Not Active	Not Active	0.488 µM	0.166 µM
O=c1[nH]cnc2c1ncn2[C@H]1CC[C@@H](CO)O1 [DIDANOSINE]	Not Active	Not Active	Not Active	Not Active	Not Active	Not Active	Not Active		
Cl.NC[C@H]1CC[C@H](C(=O)Oc2ccc(CCC(=O)O)cc2)CC1 [CETRAXATE HYDROCHLORIDE]	Not Active	Not Active	Not Active	Not Active	Not Active	Not Active	Not Active		
COc1cc(/C=C/C(=O)O)ccc1O [FERULATE]	Not Active	Not Active	Not Active	Not Active	Not Active	Not Active	Not Active		
O=C(O)CCc1nc(-c2ccccc2)c(-c2ccccc2)o1 [OXAPROZIN]	Not Active	Not Active	Not Active	Not Active	Not Active	Not Active	Not Active		
Nc1nc(N)c2nc(CNc3ccc(C(=O)N[C@@H](CCC(=O)O)C(=O)O)cc3)cnc2n1 [AMINOPTERIN]	Not Active	Not Active	Not Active	Not Active	Not Active	Not Active	Not Active		
CC(=O)Nc1ccc2c(c1)Cc1ccccc1-2 [2-ACETYLAMINOFLUORENE]	Not Active	Not Active	Not Active	Not Active	Not Active	Not Active	Not Active		
C#C[C@]1(O)CC[C@H]2[C@@H]3CCC4=CC(=O)CC[C@@H]4[C@H]3CC[C@@]21C [NORETHINDRONE]	Not Active	Not Active	Not Active	Not Active	Not Active	Not Active	Not Active		
CC[C@H]1OC(=O)[C@H](C)[C@@H](O[C@H]2C[C@@](C)(OC)[C@@H](O)[C@H](C)O2)[C@H](C)[C@@H](O[C@@H]2O[C@H](C)C[C@H](N(C)C)[C@H]2O)[C@](C)(O)C[C@@H](C)C(=O)[C@H](C)[C@@H](O)[C@]1(C)O [ERYTHROMYCIN]	Not Active	Not Active	Not Active	Not Active	Not Active	Not Active	Not Active		
c1ccc2c(c1)Nc1ccccc1S2 [PHENOTHIAZINE]	Not Active	Not Active	Not Active	Not Active	Not Active	Not Active	Not Active		
C[C@H](C(=O)O)c1ccc2oc(-c3ccc(F)cc3)nc2c1 [FLUNOXAPROFEN]	Not Active	Not Active	Not Active	Not Active	Not Active	Not Active	Not Active		
CC1(COc2ccc(CC3SC(=O)NC3=O)cc2)CCCCC1 (stereo not given) [CIGLITAZONE]	Not Active		Not Active	Not Active	Not Active	Not Active	Not Active	26.7 µM	9.07 µM
C[N+](C)(C)CCOP(=O)([O-])OC[C@H](O)CO	Not Active	Not Active	Not Active	Not Active	Not Active	Not Active	Not Active		
CCC1(c2ccccc2)C(=O)NC(=O)NC1=O [PHENOBARBITAL]	Not Active	Not Active	Not Active	Not Active	Not Active	Not Active	Not Active		
O=C(O)COC(=O)Cc1ccccc1Nc1c(Cl)cccc1Cl [ACECLOFENAC]	Not Active	Not Active	Not Active	Not Active	Not Active	Not Active	Not Active		

From ChEMBL document CHEMBL1909046, “DrugMatrix in vitro pharmacology data”
